Reference: ChEMBL document CHEMBL1201862, “PubChem BioAssay data set” (2004)
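Dose response: 5 concentrations. Exposure: 48 h. Format: 96-well plates. Endpoint: linear interpolation; highest concentration if not reached. Here, GI50 denotes the concentration required for 50% inhibition of growth.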 The source made the active and inactive calls. Cut-off read from the data, not from the text of the source: active = GI50 up to about 1.1 µM and inactive = higher.

Experiments:
Assay in all cases: growth of human tumour cells (NCI), 48 h
OVCAR-8 = test system: OVCAR-8
Malme-3M = test system: Malme-3M
SNB-19 = test system: SNB-19
TK-10 = test system: TK-10
UACC-62 = test system: UACC-62
OVCAR-3 = test system: OVCAR-3
M14 = test system: M14
A549 = test system: A549
HCC 2998 = test system: HCC 2998
786-0 = test system: 786-0
ACHN = test system: ACHN
PC-3 = test system: PC-3
RXF 393 = test system: RXF 393
SF-539 = test system: SF-539
SK-MEL-28 = test system: SK-MEL-28
CCRF-CEM = test system: CCRF-CEM
MDA-N = test system: MDA-N
UO-31 = test system: UO-31
HL-60 = test system: HL-60
Hs-578T = test system: Hs-578T

Row | SMILES | GI50 (OVCAR-8) | GI50 (Malme-3M) | GI50 (SNB-19) | GI50 (TK-10) | GI50 (UACC-62) | GI50 (OVCAR-3) | GI50 (M14) | GI50 (A549) | GI50 (HCC 2998) | GI50 (786-0) | GI50 (ACHN) | GI50 (PC-3) | GI50 (RXF 393) | GI50 (SF-539) | GI50 (SK-MEL-28) | GI50 (CCRF-CEM) | GI50 (MDA-N) | GI50 (UO-31) | GI50 (HL-60) | GI50 (Hs-578T)
1 | O=C1NCN(c2ccccc2)C12CCN(CC1COc3ccccc3O1)CC2 (stereo not drawn) [SPIROXATRINE] | 69.3 µM (inactive) | 40.6 µM (inactive) | 30.3 µM (inactive) | 46.9 µM (inactive) | > 100 µM (inactive) | 28.6 µM (inactive) | > 100 µM (inactive) | > 100 µM (inactive) | > 100 µM (inactive) | 31.6 µM (inactive) | 84.1 µM (inactive) | 51.9 µM (inactive) | 29.9 µM (inactive) | 62.5 µM (inactive) | > 100 µM (inactive) | > 100 µM (inactive) | > 100 µM (inactive) | 50.7 µM (inactive) | > 100 µM (inactive) | 23.5 µM (inactive)
2 | Cc1cc(C)nc(NS(=O)(=O)c2ccc(Nc3c4ccccc4nc4ccc(C(=O)Nc5ccc(S(N)(=O)=O)cc5)cc34)cc2)n1 | 43 µM (inactive) | > 100 µM (inactive) | > 100 µM (inactive) | > 100 µM (inactive) | > 100 µM (inactive) | > 100 µM (inactive) | > 100 µM (inactive) | > 100 µM (inactive) | > 100 µM (inactive) | > 100 µM (inactive) | > 100 µM (inactive) | > 100 µM (inactive) | > 100 µM (inactive) | > 100 µM (inactive) | > 100 µM (inactive) | 63.7 µM (inactive) | > 100 µM (inactive) | > 100 µM (inactive) | > 100 µM (inactive) | > 100 µM (inactive)
3 | CN(C)CCCNC(CC#N)CCC#N (stereo not drawn) | > 10 µM (inactive) | > 10 µM (inactive) | > 10 µM (inactive) | > 10 µM (inactive) | > 10 µM (inactive) | > 10 µM (inactive) | > 10 µM (inactive) | > 10 µM (inactive) | > 10 µM (inactive) | > 10 µM (inactive) | > 10 µM (inactive) | > 10 µM (inactive) | > 10 µM (inactive) | > 10 µM (inactive) | > 10 µM (inactive) | > 10 µM (inactive) | > 10 µM (inactive) | > 10 µM (inactive) | > 10 µM (inactive) | > 10 µM (inactive)
4 | CC(=O)N1C(c2[nH]c3ccccc3c2-c2ccccc2)CCN1c1ccccc1 (stereo not drawn) | > 10 µM (inactive) | > 10 µM (inactive) | > 10 µM (inactive) | > 10 µM (inactive) |  | > 10 µM (inactive) | > 10 µM (inactive) | > 10 µM (inactive) | > 10 µM (inactive) | > 10 µM (inactive) | > 10 µM (inactive) | 8.97 µM (inactive) | > 10 µM (inactive) | > 10 µM (inactive) | > 10 µM (inactive) | 7.8 µM (inactive) | > 10 µM (inactive) | > 10 µM (inactive) | > 10 µM (inactive) | > 10 µM (inactive)
5 | NS(=O)(=O)c1ccc(/N=N/c2nc3[nH]cnc(=S)c3[nH]2)cc1 | 0.593 µM (active) | 1.93 µM (inactive) | > 100 µM (inactive) | 0.474 µM (active) | 0.388 µM (active) | 1.22 µM (inactive) | 0.369 µM (active) | 4.93 µM (inactive) | 0.682 µM (active) | 0.507 µM (active) | 3.1 µM (inactive) | 3.73 µM (inactive) | 1.03 µM (active) | 3.92 µM (inactive) | 10.6 µM (inactive) | 0.0902 µM (active) | 0.684 µM (active) | 0.849 µM (active) | 2.77 µM (inactive) | 6.41 µM (inactive)
6 | CCOC(=O)N1C/C(=C\c2ccccc2)C(=O)/C(=C/c2ccccc2)C1 | 2.82 µM (inactive) | 7.36 µM (inactive) | 4.72 µM (inactive) | 8.34 µM (inactive) | 2.66 µM (inactive) | 4.23 µM (inactive) | 2.77 µM (inactive) | 12.3 µM (inactive) | 1.94 µM (inactive) | 2.9 µM (inactive) | 3.84 µM (inactive) | 2.16 µM (inactive) | 4.01 µM (inactive) | 5.08 µM (inactive) | 2.39 µM (inactive) | 1.51 µM (inactive) | 1.72 µM (inactive) | 5.85 µM (inactive) | 1.24 µM (inactive) | 2.4 µM (inactive)
7 | c1ccc(/N=C2\SC(c3ccccc3)CN2C23CC4CC(CC(C4)C2)C3)cc1 (stereo not drawn) | > 100 µM (inactive) | > 100 µM (inactive) | > 100 µM (inactive) | > 100 µM (inactive) |  | > 100 µM (inactive) | > 100 µM (inactive) | > 100 µM (inactive) | > 100 µM (inactive) | > 100 µM (inactive) | > 100 µM (inactive) | > 100 µM (inactive) | > 100 µM (inactive) | > 100 µM (inactive) | > 100 µM (inactive) | > 100 µM (inactive) | > 100 µM (inactive) | > 100 µM (inactive) | > 100 µM (inactive) | > 100 µM (inactive)
8 | CC(CC[C@@]1(O)OC2C[C@H]3[C@@H]4CC[C@H]5CC(OC6OC(CO)C(OC7OC(CO)C(O)C(OC8OCC(O)C(O)C8O)C7OC7OC(CO)C(O)C(O)C7O)C(O)C6O)[C@H](O)CC5(C)[C@H]4CCC3(C)C2[C@@H]1C)COC1OC(CO)C(O)C(O)C1O (stereo partly drawn) | 9.86 µM (inactive) | 15.2 µM (inactive) | 28.3 µM (inactive) | 2.39 µM (inactive) | 16.4 µM (inactive) | 3.46 µM (inactive) | 25 µM (inactive) | 3.47 µM (inactive) | 13.8 µM (inactive) | 3.43 µM (inactive) | 2.09 µM (inactive) | 10.3 µM (inactive) | 4.28 µM (inactive) | 3.73 µM (inactive) | 29.2 µM (inactive) | 3.26 µM (inactive) | 15.4 µM (inactive) | 6.84 µM (inactive) | 6.9 µM (inactive) | 4.73 µM (inactive)
9 | CCCCCCCCCCCCCCCC(=O)Nc1ccn(C2CCC(COP(=O)(O)OCC3OC(n4cc(F)c(=O)[nH]c4=O)CC3OC(C)=O)O2)c(=O)n1 (stereo not drawn) | 10.6 µM (inactive) | 15.6 µM (inactive) | 3.66 µM (inactive) | 24.4 µM (inactive) | 10.7 µM (inactive) | 19.4 µM (inactive) | 13.7 µM (inactive) | 1.67 µM (inactive) | 3.01 µM (inactive) | 5.14 µM (inactive) | 3.14 µM (inactive) | 15.5 µM (inactive) | 22.4 µM (inactive) | 1.03 µM (active) | 17.9 µM (inactive) | 1.47 µM (inactive) | 19.6 µM (inactive) | 7.48 µM (inactive) | 11.2 µM (inactive) | 29.2 µM (inactive)
10 | O=C(O)CC(NC(=O)/C(=C/c1ccccc1)NC(=O)c1ccccc1)C(=O)O (stereo not drawn) | > 100 µM (inactive) | > 100 µM (inactive) | > 100 µM (inactive) | > 100 µM (inactive) | > 100 µM (inactive) | > 100 µM (inactive) | > 100 µM (inactive) | > 100 µM (inactive) | > 100 µM (inactive) | > 100 µM (inactive) | > 100 µM (inactive) | > 100 µM (inactive) | > 100 µM (inactive) | > 100 µM (inactive) | > 100 µM (inactive) | > 100 µM (inactive) | > 100 µM (inactive) | > 100 µM (inactive) | > 100 µM (inactive) | > 100 µM (inactive)
11 | Cn1c(=O)cc(NNc2ccccc2)[nH]c1=O | 20.9 µM (inactive) | 19.9 µM (inactive) | > 100 µM (inactive) | 30.3 µM (inactive) | 59.4 µM (inactive) | 16.7 µM (inactive) | 29.9 µM (inactive) | > 100 µM (inactive) | > 100 µM (inactive) | 16.2 µM (inactive) | 36.4 µM (inactive) | > 100 µM (inactive) | 18 µM (inactive) | > 100 µM (inactive) | 28.6 µM (inactive) | 34.1 µM (inactive) | > 100 µM (inactive) | 83.2 µM (inactive) | 26.7 µM (inactive) | > 100 µM (inactive)
12 | CC1OC(OC2C(O)COC(OC3C(C)OC(OC4C(OC(=O)[C@]56CCC(C)(C)C[C@@H]5C5=CCC7[C@@]8(C)C[C@H](O)[C@H](OC9OC(CO)C(O)C(OC%10OC(CO)C(O)C(O)C%10O)C9O)[C@@](C)(CO)[C@@H]8CC[C@@]7(C)[C@]5(C)CC6)OCC(O)C4O)C(O)C3OC3OCC(O)C(O)C3O)C2O)C(O)C(O)C1O (stereo partly drawn) | 13.1 µM (inactive) | 10.1 µM (inactive) | 7.67 µM (inactive) | 10 µM (inactive) | 3.66 µM (inactive) | 11.4 µM (inactive) | 1.87 µM (inactive) | 2.11 µM (inactive) | 2.07 µM (inactive) | 5.53 µM (inactive) | 5.41 µM (inactive) | 4.36 µM (inactive) | 5.55 µM (inactive) | 14.6 µM (inactive) | 2.27 µM (inactive) | 10.4 µM (inactive) | 2.87 µM (inactive) | 3.15 µM (inactive) | 3.72 µM (inactive) | 15.2 µM (inactive)
13 | CC(=O)O[C@H]1C(=O)[C@@]2(C)[C@H]([C@H](OC(=O)c3ccccc3)[C@]3(O)C[C@H](OC(=O)[C@H](O)[C@@H](NC(=O)OC(C)(C)C)c4ccco4)C(C)=C1C3(C)C)[C@]1(OC(C)=O)CO[C@@H]1C[C@@H]2O | 0.00615 µM (active) | 6.61 µM (inactive) | 0.00971 µM (active) | 0.0116 µM (active) | 0.0129 µM (active) | 0.00769 µM (active) | 0.0794 µM (active) | < 0.005 µM (active) | < 0.005 µM (active) | 0.00614 µM (active) | 8.2 µM (inactive) | < 0.005 µM (active) | 0.00899 µM (active) | 0.00553 µM (active) | 0.205 µM (active) | < 0.005 µM (active) | < 0.005 µM (active) | 0.0105 µM (active) | < 0.005 µM (active) | < 0.005 µM (active)
